Literature values in US20030065040A1, “Pharmaceutical compositions including sampatrilat dispersed in a lipoidic vehicle” (priority 2001, published 2003).
Where two headings read alike, the source gives them in different places.

Key:
[1] = dogs; reported to be as low as
[2] = man; reported to be as low as

- oral bioavailability [1]: 5%
- oral bioavailability [2]: 2%
SMILES: CS(=O)(=O)N[C@@H](CCCCN)C(=O)NC[C@H](CC1(C(=O)N[C@@H](Cc2ccc(O)cc2)C(=O)O)CCCC1)C(=O)O [Sampatrilat, sampatrilat]
